Reference: US6245917A, “Crystalline sodium phenytoin monohydrate” (Warner-Lambert Company, priority 1999, dated 2001)

How the values were obtained:
[1] = Drying of SPM under low pressure, XRPD of resulting solid; format: physicochemical; details: about 1 torr, ambient temperature, 24 hours
Protocol: Any residual dichloromethane should evaporate readily from the solid under ambient conditions. To determine if solvent evaporation could be ensured by drying under low-pressure conditions, a portion of the SPM sample was kept under about 1 torr pressure at ambient temperature for 24 hours.

[2] = format: physicochemical
Protocol: Both SPM and SPA were analyzed by x-ray powder diffraction (XRPD), infrared (IR) spectroscopy, solid-state nuclear magnetic resonance (SSNMR) spectroscopy, differential scanning calorimetry (DSC) and thermogravimetric analysis (TGA). The XRPD patterns of SPM and SPA are quite different and distinguishable. While the IR and SSNMR spectra of SPM and SPA are different, the differences are subtle. SPM and SPA behave quite differently on both DSC and TGA thermal analyses. SPA undergoes endothermic transitions at 364° C. and 409° C. that are accompanied by a weight loss of 72%.

[3] = Nonintrinsic dissolution in water; format: physicochemical
Protocol: (§1) Dissolutions were carried out in a standard Van-Kel dissolution bath. The medium was either water, 90% water/10% ethanol, or 95% water/5% ethanol. For nonintrinsic dissolution experiments, SPM and SPA powders were sieved and fractions that passed through a 75 μm sieve were used. For intrinsic dissolution experiments, tablets were prepared in a standard Woods apparatus by compression of 400 mg of material at 3000 psig for 1 minute.
Each experiment was carried out by placing 900 mL of medium into one of the Van-Kel dissolution vessels and allowing it to equilibrate at 37° C. The test materials were added (powder or tablet) and samples were withdrawn by syringe at the specified times (see Table 4). Each sample was filtered through a 0.2μ nylon syringe filter. Three dissolution experiments were carried out for each lot of suspension.
The rates of dissolution of SPM and SPA were compared. […] These studies were conducted by slurrying sieved (<75 μm) sodium phenytoin powder in pure water and measuring the concentrations in solution at various times by HPLC. Unfortunately, solid crystallized from the solutions withdrawn for analysis as they cooled, rendering the data invalid for determination of dissolution rate. Even so, all of the samples withdrawn contained about 5 mg/mL of sodium phenytoin, including those withdrawn 5 minutes after the slurries were prepared. […] A decrease in the concentration of dissolved sodium phenytoin with time is consistent with the reported reaction of sodium phenytoin with acids, even carbonic acid formed by dissolution of atmospheric carbon dioxide in water, to give relatively water-insoluble phenytoin.
Samples were analyzed by high-performance liquid chromatography (HPLC) on a BAS 480 HPLC system equipped with a UV/VIS detector and a TSP AS 100 autosampler, and controlled with INJECT software. A Phenomenex Hypersil C18 BDS column (5μ particle size, 4.6×150 mm) was used. The mobile phase was prepared by mixing water, methanol, and acetic acid in a 60:40:0.5 volume ratio. Analyses were carried out at a flow rate of 1 mL/minute with the UV/VIS detector set at 254 nm. The injection volume was 5 μL.
A standard solution consisting of 74.8 μg/mL of sodium phenytoin in mobile phase was injected three times before and three times after each series of analyses. Each unknown sample was injected three times without dilution. The peak areas at 254 nm were recorded and averaged for each time point. The amount of sodium phenytoin in solution at each time point was calculated from the line equation of the calibration curve: […]

[4] = Solid form interconversion under tableting pressure (XRPD); format: physicochemical; details: XRPD of crushed tablets
Protocol: as §1
For intrinsic dissolution experiments, the test material is compressed into a tablet and the tablet (still in the die) is lowered into the dissolution medium. In this way, a consistent surface area, the tablet face, is presented to the medium. […] Therefore, tablets of SPM and SPA were prepared, removed from the die, crushed into powders, and examined by XRPD.

O=C1NC(=O)C(c2ccccc2)(c2ccccc2)N1 [SPM, sodium phenytoin monohydrate]
form change on drying under low pressure [1]: these conditions caused dehydration | stability and physical properties compared with sodium phenytoin anhydrate [2]: greatly improved stability and physical properties | amount of sodium phenytoin at extended reaction times versus earlier samples ([3]; 24 and 72 hours): appeared to be less than the amount found in the earlier samples | dissolution rate in water ([3]; nonintrinsic dissolution experiments): high enough that differences could not be determined | sodium phenytoin in samples withdrawn ([3]; pure water, including 5 minutes after slurries were prepared, data invalid for dissolution rate): about 5 mg/mL | dissolution in water ([3]; sieved powder (<75 μm), pure water): dissolve rapidly and extensively in water | solid form interconversion under pressure used to make tablets [4]: no solid form interconversion occurred
